Assays:
[1] = system: Alopecurus myosuroides (ALOMY); assay: Test 1A glasshouse assay, pre-emergence herbicidal activity; format: in vivo; settings: 312 h, 13 days after application, read-out: Pre-Emergence Herbicidal Activity (% Phytotoxicity) ALOMY
Experimental: (§1) Seeds of a variety of test species are sown in standard soil (usually sandy soil) in pots. After cultivation for one day (pre-emergence) or after 8 days cultivation (post-emergence) under controlled conditions in a glasshouse (at 24/16° C., day/night; 14 hours light; 65% humidity), the plants are sprayed with an aqueous spray solution derived from the formulation of the technical active ingredient (compound) in acetone/water (50:50) solution containing 0.5% Tween 20 (polyoxyethylene sorbitan monolaurate, CAS RN 9005-64-5). The test plants are then grown under controlled conditions in a glasshouse (at 24/16° C., day/night; 14 hours light; 65% humidity) and watered twice daily. 13 days after application of the test compounds, for pre- and post-emergence, the test is evaluated visually for percentage phytotoxicity to each plant (where 100%=total damage to plant; 0%=no damage to plant).
(§2) Alopecurus myosuroides (ALOMY), Setaria faberi (SETFA), Echinochloa crus-galli (ECHCG), Amaranthus retroflexus (AMARE), and Abutilon theophasti Medik. (ABUTH, common English name “velvetleaf”). Of these, Alopecurus myosuroides (ALOMY), Setaria faberi (SETFA), and Echinochloa crus-galli (ECHCG) are grassy monocotyledonous weeds.
(§3) Lolium perenne (LOLPE), Triticum aestivum (TRZAW, winter wheat), Alopecurus myosuroides (ALOMY), Echinochloa crus-galli (ECHCG), and Avena fatua (AVEFA). All these are grassy monocotyledonous weeds and/or (for wheat) grassy crops.

[2] = system: Amaranthus retroflexus (AMARE); assay: Test 1A glasshouse assay, post-emergence herbicidal activity; format: in vivo; settings: 312 h, 13 days after application, read-out: Post-Emergence Herbicidal Activity (% Phytotoxicity) AMARE
Experimental: as §1, §2

[3] = system: Abutilon theophasti Medik. (ABUTH); assay: as above; format: in vivo; settings: 312 h, 13 days after application, read-out: Post-Emergence Herbicidal Activity (% Phytotoxicity) ABUTH
Experimental: as §1, §2

[4] = system: Setaria faberi (SETFA); assay: as above; format: in vivo; settings: 312 h, 13 days after application, read-out: Post-Emergence Herbicidal Activity (% Phytotoxicity) SET FA
Experimental: as §1, §2

[5] = system: Amaranthus retroflexus (AMARE); assay: Test 1A glasshouse assay, pre-emergence herbicidal activity; format: in vivo; settings: 312 h, 13 days after application, read-out: Pre-Emergence Herbicidal Activity (% Phytotoxicity) AMARE
Experimental: as §1, §2

[6] = system: Setaria faberi (SETFA); assay: as above; format: in vivo; settings: 312 h, 13 days after application, read-out: Pre-Emergence Herbicidal Activity (% Phytotoxicity) SET FA
Experimental: as §1, §2

[7] = system: Echinochloa crus-galli (ECHCG); assay: as above; format: in vivo; settings: 312 h, 13 days after application, read-out: Pre-Emergence Herbicidal Activity (% Phytotoxicity) ECHCG
Experimental: as §1
(§4) Alopecurus myosuroides (ALOMY), Setaria faberi (SETFA), Echinochloa crus-galli (ECHCG), Amaranthus retroflexus (AMARE), and Abutilon theophasti Medik. (ABUTH, common English name “velvetleaf”). Of these, Alopecurus myosuroides (ALOMY), Setaria faberi (SETFA), and Echinochloa crus-galli (ECHCG) are grassy monocotyledonous weeds. […]

[8] = system: Echinochloa crus-galli (ECHCG); assay: Test 1A glasshouse assay, post-emergence herbicidal activity; format: in vivo; settings: 312 h, 13 days after application, read-out: Post-Emergence Herbicidal Activity (% Phytotoxicity) ECHCG
Experimental: as §1, §4

[9] = system: Alopecurus myosuroides (ALOMY); assay: as above; format: in vivo; settings: 312 h, 13 days after application, read-out: Post-Emergence Herbicidal Activity (% Phytotoxicity) ALOMY
Experimental: as §1, §4

[10] = system: Abutilon theophasti Medik. (ABUTH); assay: Test 1A glasshouse assay, pre-emergence herbicidal activity; format: in vivo; settings: 312 h, 13 days after application, read-out: Pre-Emergence Herbicidal Activity (% Phytotoxicity) ABUTH
Experimental: as §1, §2

[11] = system: Avena fatua (AVEFA); assay: as above; format: in vivo; settings: 312 h, 250 g/ha, 13 days after application, read-out: Pre-Emergence Herbicidal Activity (% Phytotoxicity) AVEFA
Experimental: as §1, §3

[12] = system: Lolium perenne (LOLPE); assay: as above; format: in vivo; settings: 312 h, 250 g/ha, 13 days after application, read-out: Pre-Emergence Herbicidal Activity (% Phytotoxicity) LOLPE
Experimental: as §1, §3

[13] = system: Triticum aestivum (TRZAW, winter wheat); assay: as above; format: in vivo; settings: 312 h, 250 g/ha, 13 days after application, read-out: Pre-Emergence Herbicidal Activity (% Phytotoxicity) TRZAW
Experimental: as §1, §3

[14] = system: Avena fatua (AVEFA); assay: Test 1A glasshouse assay, post-emergence herbicidal activity; format: in vivo; settings: 312 h, 250 g/ha, 13 days after application, read-out: Post-Emergence Herbicidal Activity (% Phytotoxicity) AVEFA
Experimental: as §1
(§5) Lolium perenne (LOLPE), Triticum aestivum (TRZAW, winter wheat, variety ‘Hereward’), Alopecurus myosuroides (ALOMY), Echinochloa crus-galli (ECHCG), and Avena fatua (AVEFA). All these are grassy monocotyledonous weeds and/or (for wheat) grassy crops.

[15] = system: Lolium perenne (LOLPE); assay: as above; format: in vivo; settings: 312 h, 250 g/ha, 13 days after application, read-out: Post-Emergence Herbicidal Activity (% Phytotoxicity) LOLPE
Experimental: as §1, §5

[16] = system: Triticum aestivum (TRZAW, winter wheat, variety ‘Hereward’); assay: as above; format: in vivo; settings: 312 h, 250 g/ha, 13 days after application, read-out: Post-Emergence Herbicidal Activity (% Phytotoxicity) TRZAW
Experimental: as §1, §5

[17] = system: Johnsongrass (Sorghum halepense); settings: gibberellic acid mixed with clethodim; cited from earlier work
[18] = system: volunteer corn; settings: gibberellic acid mixed with clethodim; cited from earlier work

SMILES	inhibition at 250 g/ha [1]	inhibition at 250 g/ha [2]	inhibition at 250 g/ha [3]	inhibition at 250 g/ha [4]	inhibition at 250 g/ha [5]	inhibition at 250 g/ha [6]	inhibition at 250 g/ha [7]	inhibition at 250 g/ha [8]	inhibition at 250 g/ha [9]	inhibition at 30 g/ha [2]	inhibition at 30 g/ha [3]	inhibition at 30 g/ha [4]	inhibition at 250 g/ha [10]	inhibition at 30 g/ha [8]	inhibition at 30 g/ha [9]	further results
CC#Cc1ccc(C2C(=O)N(C)N(C)C2=O)c(C)c1 [Compound A2]	80%	100%	10%	80%	10%	90%	70%	90%	70%							
CC#Cc1cc(OC)c(C2C(=O)N(C)N(C)C2=O)c(OC)c1 [Compound A5]	90%	0%	0%	90%	10%	100%	90%	100%	90%	0%	0%	80%	0%	90%	70%	
CC#Cc1cc(C)c(C2C(=O)N(CC)N(CC)C2=O)c(C)c1 [Compound A6]	50%	30%	30%	80%	70%	70%	80%	80%	80%	0%	30%	70%	30%	40%	20%	
CC#Cc1cc(C)c(C2C(=O)N3CCCCN3C2=O)c(C)c1 [Compound A18]	100%	80%	80%	90%	40%	90%	90%	100%	80%	40%	70%	70%	50%	20%	50%	inhibition at 30 g/ha [1]: 60%; inhibition at 30 g/ha [5]: 20%; inhibition at 30 g/ha [10]: 40%; inhibition at 30 g/ha [6]: 50%; inhibition at 30 g/ha [7]: 60%
CC#Cc1cc(C)c(C2C(=O)N3CCOCCN3C2=O)c(C)c1 [Compound A28]	100%	30%	70%	100%	30%	100%	100%	100%	90%	10%	60%	70%	10%	80%	60%	inhibition at 30 g/ha [1]: 70%; inhibition at 30 g/ha [5]: 20%; inhibition at 30 g/ha [10]: 10%; inhibition at 30 g/ha [6]: 50%; inhibition at 30 g/ha [7]: 80%
CC#Cc1cc(C)c(C2C(=O)CN(Cc3ccccn3)C2=O)c(C)c1 (stereo not drawn) [Compound A48, 3-(2,6-dimethyl-4-prop-1-ynyl-phenyl)-1-(2-pyridylmethyl)pyrrolidine-2,4-dione]	90%						80%	70%	90%							inhibition at 250 g/ha [11]: 40%; inhibition at 250 g/ha [12]: 80%; inhibition at 250 g/ha [13]: 40%; inhibition at 250 g/ha [14]: 20%; inhibition at 250 g/ha [15]: 70%; inhibition at 250 g/ha [16]: 30%
CC#Cc1cc(C)c(-c2c(OC(C)=O)n(C)n(C)c2=O)c(C)c1 [Compound P2]	90%	30%	60%	90%	70%	90%	100%	100%	90%	0%	10%	40%	0%	80%	40%	
CC#Cc1cc(C)c(-c2c(OC(=O)C(C)(C)C)n3n(c2=O)CCCCC3)c(C)c1 [Compound P3, [2-(2,6-dimethyl-4-prop-1-ynyl-phenyl)-1-oxo-6,7,8,9-tetrahydro-5H-pyrazolo[1,2-a]diazepin-3-yl]2,2-dimethylpropanoate]	20%		0%	70%	20%	70%	20%	100%	50%	0%	10%	20%	10%	60%	40%	
C=C1C[C@]23C[C@@]1(O)CC[C@H]2[C@@]12C=C[C@H](O)[C@@](C)(C(=O)O1)[C@H]2[C@@H]3C(=O)O [gibberellic acid]																control and/or speed of control of Johnsongrass (Sorghum halepense) [17]: increased clethodim's control and/or speed of control; control and/or speed of control of volunteer corn [18]: increased clethodim's control and/or speed of control
